Measurements: US20240247080A1, “GLP1/GIP/NPY2 RECEPTOR TRIPLE AGONISTS” (Boehringer Ingelheim International GmbH, priority 2022, published 2024)
Like-named read-outs stand apart in the source and are kept apart here. Starred links: 1 amine or outer side, 2 acyl side, 3 side chain; linkers in the order of their positions; H or OH if unused. Non-standard residues stand in square brackets, D forms with d. Groups on a side chain read outwards from the residue. *: point of attachment. C20 diacid = O=C(O)CCCCCCCCCCCCCCCCCCC(=O)*; C18 diacid = O=C(O)CCCCCCCCCCCCCCCCC(=O)*; γGlu = O=C(O)[C@H](CCC(=O)[*:2])N[*:1]; εLys = N[C@@H](CCCCN[*:1])C(=O)[*:2]; hArg = N=C(N)NCCCC[C@H](N)C(=O)O; Aib = CC(C)(N)C(=O)O

Columns and labels:
Format in all cases: cell-based
Settings in all cases: CreLuc reporter gene assay
[1] = molecular target: T1, hGLP1R (Homo sapiens, UniProt P43220); assay: hGLP1R CreLuc reporter gene assay in 0.5% and 100% plasma
T1 construct: expressed in transfected cells; host or cells: HEK-293 cells carrying a CRE-luciferase reporter gene
T1 sequence (P43220 24-463): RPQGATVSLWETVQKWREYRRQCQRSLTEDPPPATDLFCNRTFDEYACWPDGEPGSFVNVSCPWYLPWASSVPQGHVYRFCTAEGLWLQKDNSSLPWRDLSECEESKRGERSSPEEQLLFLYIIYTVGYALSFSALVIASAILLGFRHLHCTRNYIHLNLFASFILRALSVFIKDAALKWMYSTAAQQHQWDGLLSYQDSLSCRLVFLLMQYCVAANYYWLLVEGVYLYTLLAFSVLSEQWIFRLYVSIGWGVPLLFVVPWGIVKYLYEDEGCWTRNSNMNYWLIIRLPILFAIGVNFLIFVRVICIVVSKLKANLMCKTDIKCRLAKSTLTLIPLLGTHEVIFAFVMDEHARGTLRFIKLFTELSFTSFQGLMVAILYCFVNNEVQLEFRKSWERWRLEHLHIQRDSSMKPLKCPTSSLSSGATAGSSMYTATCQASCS
Procedure, shortened: (§1)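 Agonist EC50s came from 8-concentration curves over four decades, fitted by non-linear variable-slope regression of CRE-driven luciferase luminescence. Cells were exposed 4 h at 37 °C, in buffer with 0.5% human plasma or in 100% plasma; GIPR was expressed in CHO cells, GLP-1R and NPY2R in HEK cells.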

[2] = molecular target: T2, hGIPR (Homo sapiens, UniProt P48546); assay: hGIPR CreLuc reporter gene assay in 0.5% and 100% plasma
T2 construct: expressed in transfected cells; host or cells: CHO cells carrying a CRE-luciferase reporter gene
T2 sequence (P48546 22-466): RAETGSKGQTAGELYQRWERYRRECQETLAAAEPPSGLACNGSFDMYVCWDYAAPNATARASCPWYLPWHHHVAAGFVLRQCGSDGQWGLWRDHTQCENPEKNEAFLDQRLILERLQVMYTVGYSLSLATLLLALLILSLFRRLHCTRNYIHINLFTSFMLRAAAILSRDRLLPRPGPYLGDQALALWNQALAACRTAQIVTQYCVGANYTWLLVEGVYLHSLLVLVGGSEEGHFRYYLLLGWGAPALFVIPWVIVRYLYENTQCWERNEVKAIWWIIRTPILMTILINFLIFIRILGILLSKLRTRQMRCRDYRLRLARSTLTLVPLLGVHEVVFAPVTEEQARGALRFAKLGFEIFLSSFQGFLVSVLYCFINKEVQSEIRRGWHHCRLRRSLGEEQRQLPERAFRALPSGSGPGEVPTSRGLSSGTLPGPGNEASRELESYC
Procedure, shortened: as §1

[3] = molecular target: T3, hNPY2R (Homo sapiens, UniProt P49146); assay: hNPY2R CreLuc reporter gene assay in 0.5% and 100% plasma
T3 construct: expressed in transfected cells; host or cells: HEK-293 cells carrying a CRE-luciferase reporter gene
T3 sequence (P49146 1-381): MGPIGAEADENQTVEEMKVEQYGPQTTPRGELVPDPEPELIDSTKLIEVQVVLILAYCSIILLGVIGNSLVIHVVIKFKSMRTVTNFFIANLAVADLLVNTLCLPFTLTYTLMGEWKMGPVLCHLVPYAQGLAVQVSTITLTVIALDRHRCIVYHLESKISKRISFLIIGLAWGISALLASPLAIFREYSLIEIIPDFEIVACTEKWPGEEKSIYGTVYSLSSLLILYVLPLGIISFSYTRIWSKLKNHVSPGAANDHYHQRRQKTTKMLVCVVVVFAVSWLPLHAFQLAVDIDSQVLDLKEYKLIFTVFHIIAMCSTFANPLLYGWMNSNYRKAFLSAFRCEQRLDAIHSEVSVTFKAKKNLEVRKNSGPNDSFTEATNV
Procedure, shortened: as §1

[4] = 0.5% human plasma, read-out: hGLP1R 0.5% hP
[5] = 100% human plasma, read-out: hGLP1R 100% hP
[6] = 0.5% human plasma, read-out: hGIPR 0.5% hP
[7] = 100% human plasma, read-out: hGIPR 100% hP
[8] = 0.5% human plasma, read-out: hNPY2R 0.5% hP
[9] = 100% human plasma, read-out: hNPY2R 100% hP

Compound	EC50 [1, 4] [nM]	EC50 [1, 5] [nM]	EC50 [2, 6] [nM]	EC50 [2, 7] [nM]	EC50 [3, 8] [nM]	EC50 [3, 9] [nM]
H-Y[Aib]EGTFTSDYSI[Aib]LEKQAQ[Aib]AFVEWLIK([εLys-γGlu-γGlu-γGlu-γGlu-γGlu-γGlu-C20 diacid])GGPSSGAS[Aib]RHYYNWLT[hArg]QR[dY]-NH2 [Compound 26, Y-Aib-E-G-T-F-T-S-D-Y-S-I-Aib-L-E-K-Q-A-Q-Aib-A-F-V-E-W-L-I-K(1,3)-G-G-P-S-S-G-A-S-Aib-R-H-Y-Y-N-W-L-T-hArg-Q-R-DTyr-NH2.C20DA-gGlu-gGlu-gGlu-gGlu-gGlu-gGlu-eLys(1,2)]	0.07	1.18	0.09	0.7	> 100	
CC[C@H](C)[C@H](NC(=O)[C@H](CC(C)C)NC(=O)[C@H](Cc1c[nH]c2ccccc12)NC(=O)[C@H](CCC(N)=O)NC(=O)[C@@H](NC(=O)[C@H](Cc1ccccc1)NC(=O)[C@H](C)NC(=O)C(C)(C)NC(=O)[C@H](CCC(N)=O)NC(=O)[C@H](C)NC(=O)[C@H](CCC(N)=O)NC(=O)[C@H](CCC(=O)O)NC(=O)[C@H](CCC(=O)O)NC(=O)[C@H](CC(C)C)NC(=O)C(C)(C)NC(=O)[C@@H](NC(=O)[C@H](CO)NC(=O)[C@H](Cc1ccc(O)cc1)NC(=O)[C@H](CC(=O)O)NC(=O)[C@H](CO)NC(=O)[C@@H](NC(=O)[C@H](Cc1ccccc1)NC(=O)[C@@H](NC(=O)CNC(=O)[C@H](CCC(=O)O)NC(=O)C(C)(C)NC(=O)[C@@H](N)Cc1ccc(O)cc1)[C@@H](C)O)[C@@H](C)O)[C@@H](C)CC)C(C)C)C(=O)N[C@@H](CCCCNC(=O)[C@@H](N)CCCCNC(=O)CC[C@H](NC(=O)CC[C@H](NC(=O)CC[C@H](NC(=O)[C@H](CCC(=O)O)NC(=O)CC[C@H](NC(=O)CC[C@H](NC(=O)CCCCCCCCCCCCCCCCCCC(=O)O)C(=O)O)C(=O)O)C(=O)O)C(=O)O)C(=O)O)C(=O)NCC(=O)NCC(=O)N1CCC[C@H]1C(=O)N[C@@H](CO)C(=O)N[C@@H](CO)C(=O)NCC(=O)N[C@@H](C)C(=O)N[C@@H](CO)C(=O)N[C@@H](CC(C)C)C(=O)N[C@@H](CCCNC(=N)N)C(=O)N[C@@H](Cc1c[nH]cn1)C(=O)N[C@@H](Cc1ccc(O)cc1)C(=O)N[C@@H](Cc1ccc(O)cc1)C(=O)N[C@@H](CC(N)=O)C(=O)N[C@@H](Cc1c[nH]c2ccccc12)C(=O)N[C@@H](CC(C)C)C(=O)N[C@H](C(=O)N[C@@H](CCCNC(=N)N)C(=O)N[C@@H](CCC(N)=O)C(=O)N[C@@H](CCCNC(=N)N)C(=O)N[C@@H](Cc1ccc(O)cc1)C(N)=O)[C@@H](C)O [Compound 30, Y-Aib-E-G-T-F-T-S-D-Y-S-I-Aib-L-E-E-Q-A-Q-Aib-A-F-V-Q-W-L-I-K(1,3)-GGPSSGASLRHYYNWLTRQRY-NH2.C20DA-gGlu-gGlu-Glu-gGlu-gGlu-gGlu-eLys(1,2)]	0.08		0.13	1.06	13.3	56.3
H-Y[Aib]EGTFTSDYSI[Aib]LEEQAQ[Aib]AFVEWLIK([εLys-γGlu-γGlu-γGlu-γGlu-γGlu-γGlu-C20 diacid])GGPSSGASLRHYYNWLTRQRY-NH2 [Compound 116, Y-Aib-E-G-T-F-T-S-D-Y-S-I-Aib-L-E-E-Q-A-Q-Aib-A-F-V-E-W-L-I-K(1,3)-GGPSSGASLRHYYNWLTRQRY-NH2.C20DA-gGlu-gGlu-gGlu-gGlu-gGlu-gGlu-eLys(1,2)]	0.14	2.48	0.43	3.01	13.5	85.7
H-Y[Aib]EGTFTSDYSI[Aib]LEKQAQ[Aib]AFVQWLIK([εLys-γGlu-γGlu-γGlu-γGlu-γGlu-C20 diacid])GGPSEPASLRHYYNWLTRQRY-NH2 [Compound 169, Y-Aib-E-G-T-F-T-S-D-Y-S-I-Aib-L-E-K-Q-A-Q-Aib-A-F-V-Q-W-L-I-K(1,3)-GGPSEPASLRHYYNWLTRQRY-NH2.C20DA-gGlu-gGlu-gGlu-gGlu-gGlu-eLys(1,2)]	0.13		0.26		10.3	50.3

More lines, in order of falling EC50 [1, 4], values ahead:

EC50 [1, 4] [nM]	EC50 [1, 5] [nM]	EC50 [2, 6] [nM]	EC50 [2, 7] [nM]	EC50 [3, 8] [nM]	EC50 [3, 9] [nM]	Compound
0.36		0.15			19.1	H-Y[Aib]EGTFTSDYSI[Aib]LEKQAQ[Aib]AFVEWLIK([εLys-γGlu-γGlu-γGlu-γGlu-γGlu-γGlu-C20 diacid])GGPSEYVSIRHYYNWLTRQRY-NH2 [Compound 42, Y-Aib-E-G-T-F-T-S-D-Y-S-I-Aib-L-E-K-Q-A-Q-Aib-A-F-V-E-W-L-I-K(1,3)-GGPSEYVSIRHYYNWLTRQRY-NH2.C20DA-gGlu-gGlu-gGlu-gGlu-gGlu-gGlu-eLys(1,2)]
0.31		0.43		42.6	157	H-Y[Aib]EGTFTSDYSI[Aib]LEKQAQ[Aib]AFVEWLIK([εLys-γGlu-γGlu-γGlu-γGlu-γGlu-γGlu-C20 diacid])GGPSSGALLRHYYNWLTRQRY-NH2 [Compound 197, Y-Aib-E-G-T-F-T-S-D-Y-S-I-Aib-L-E-K-Q-A-Q-Aib-A-F-V-E-W-L-I-K(1,3)-GGPSSGALLRHYYNWLTRQRY-NH2.C20DA-gGlu-gGlu-gGlu-gGlu-gGlu-gGlu-eLys(1,2)]
0.22		0.08	1.53		78.9	CC[C@H](C)[C@H](NC(=O)[C@H](CC(C)C)NC(=O)[C@H](Cc1c[nH]c2ccccc12)NC(=O)[C@H](CCC(=O)O)NC(=O)[C@@H](NC(=O)[C@H](Cc1ccccc1)NC(=O)[C@H](C)NC(=O)C(C)(C)NC(=O)[C@H](CCC(N)=O)NC(=O)[C@H](C)NC(=O)[C@H](CCC(N)=O)NC(=O)[C@H](CCCCN)NC(=O)[C@H](CCC(=O)O)NC(=O)[C@H](CC(C)C)NC(=O)C(C)(C)NC(=O)[C@@H](NC(=O)[C@H](CO)NC(=O)[C@H](Cc1ccc(O)cc1)NC(=O)[C@H](CC(=O)O)NC(=O)[C@H](CO)NC(=O)[C@@H](NC(=O)[C@H](Cc1ccccc1)NC(=O)[C@@H](NC(=O)CNC(=O)[C@H](CCC(=O)O)NC(=O)C(C)(C)NC(=O)[C@@H](N)Cc1ccc(O)cc1)[C@@H](C)O)[C@@H](C)O)[C@@H](C)CC)C(C)C)C(=O)N[C@@H](CCCCNC(=O)[C@@H](N)CCCCNC(=O)CC[C@H](NC(=O)CC[C@H](NC(=O)CC[C@H](NC(=O)CC[C@H](NC(=O)CC[C@H](NC(=O)CC[C@H](NC(=O)CCCCCCCCCCCCCCCCCCC(=O)O)C(=O)O)C(=O)O)C(=O)O)C(=O)O)C(=O)O)C(=O)O)C(=O)NCC(=O)NCC(=O)N1CCC[C@H]1C(=O)N[C@@H](CO)C(=O)N[C@@H](CCC(=O)O)C(=O)N1CCC[C@H]1C(=O)N[C@@H](CCC(=O)O)C(=O)N[C@@H](CO)C(=O)N[C@@H](CC(C)C)C(=O)N[C@@H](CCCNC(=N)N)C(=O)N[C@@H](Cc1c[nH]cn1)C(=O)N[C@@H](Cc1ccc(O)cc1)C(=O)N[C@@H](Cc1ccc(O)cc1)C(=O)N[C@@H](CC(N)=O)C(=O)N[C@@H](Cc1c[nH]c2ccccc12)C(=O)N[C@@H](CC(C)C)C(=O)N[C@H](C(=O)N[C@@H](CCCNC(=N)N)C(=O)N[C@@H](CCC(N)=O)C(=O)N[C@@H](CCCNC(=N)N)C(=O)N[C@@H](Cc1ccc(O)cc1)C(N)=O)[C@@H](C)O [Compound 122, Y-Aib-E-G-T-F-T-S-D-Y-S-I-Aib-L-E-K-Q-A-Q-Aib-A-F-V-E-W-L-I-K(1,3)-GGPSEPESLRHYYNWLTRQRY-NH2.C20DA-gGlu-gGlu-gGlu-gGlu-gGlu-gGlu-eLys(1,2)]
0.13	4.24	0.22		13.1	42.2	H-Y[Aib]EGTFTSDYSI[Aib]LEKQAQ[Aib]AFVQWLIK([εLys-γGlu-γGlu-γGlu-γGlu-γGlu-C18 diacid])GGPEEGASLRHYYNWLTRQRY-NH2 [Compound 143, Y-Aib-E-G-T-F-T-S-D-Y-S-I-Aib-L-E-K-Q-A-Q-Aib-A-F-V-Q-W-L-I-K(1,3)-GGPEEGASLRHYYNWLTRQRY-NH2.C18DA-gGlu-gGlu-gGlu-gGlu-gGlu-eLys(1,2)]
0.08		0.07		11	21	H-Y[Aib]EGTFTSDYSI[Aib]LEKQAQ[Aib]AFVQWLIK([εLys-γGlu-γGlu-γGlu-γGlu-γGlu-C18 diacid])GGPSEPASLRHYYNWLTRQRY-NH2 [Compound 148, Y-Aib-E-G-T-F-T-S-D-Y-S-I-Aib-L-E-K-Q-A-Q-Aib-A-F-V-Q-W-L-I-K(1,3)-GGPSEPASLRHYYNWLTRQRY-NH2.C18DA-gGlu-gGlu-gGlu-gGlu-gGlu-eLys(1,2)]
